Test results: US9855239B2, “Methods for the treatment and prevention of age-related retinal dysfunction” (University of Washington, priority 2008, dated 2018)
“Also recorded” adds a separate entry of the source.

Columns and labels:
rhodopsin/opsin = target: T1, rhodopsin/opsin (Mus musculus, UniProt P15409); assay: Purified rhodopsin/opsin analysis after long-term treatment; format: in vivo
T1 construct: from tissue; host or cells: whole eyes of wild-type C57BL/6 female mice
Method: Two weeks after the last gavage with either, 9-cis-R-Ac, all-trans-R-Ac or vehicle, groups of 48 hr dark-adapted mice were analyzed for recovery of dark adaptation after light exposure, purified rhodopsin/opsin and retinoids in the eye and retinal morphology (FIG. 1C; Methods). Mice were exposed to light of intensity 500 cd·m^−2 that bleached ˜90% of rhodopsin, anesthetized and monitored by ERG for one hr to evaluate recovery of dark adaptation. Rhodopsin was purified and rhodopsin/opsin ratios was determined. Retinoid analyses were performed on dissected eyes removed at 0, 10, 30, and 60 min after exposure to the same amount of light. Mice used to evaluate retinal morphology were not exposed to photobleaching prior to analysis.
Rhodopsin purification was done under dim red light as previously described (Zhu, L., et al. J Biot Chem, 279, 53828-53839 (2004)). Purified anti-rhodopsin C terminus antibody 1D4 (MacKenzie, D., Arendt, A., Hargrave, P., McDowell, J. H. & Molday, R. S. Biochemistry, 23, 6544-6549 (1984)) was immobilized on CNBr-activated Sepharose 4B and a 4.6×12-mm column was packed with 2 mg of 1 D4 antibody/ml of Sepharose beads. Mouse whole eyes were homogenized in 137 mM NaCl, 5.4 mM Na2HPO4, 2.7 mM KCl and 1.8 mM KH2PO4 (pH 7.5) with a glass-to-glass homogenizer. Soluble proteins in the supernatant were removed by centrifugation at 14,000×g for 5 min and the pellet was solubilized in buffer containing 1% dodecyl-β-maltoside in 10 mM Bis-Tris propane (pH 7.5) containing 500 mM NaCl. The supernatant was cleared by centrifugation at 125,000×g for 20 min and loaded onto an antibody 1 D4-packed immunoaffinity column which was then thoroughly washed at a flow rate of 0.5 ml/min with 10 mM Bis-Tris propane (pH 7.5) containing 500 mM NaCl and 0.1% dodecyl-β-maltoside. […] Purified rhodopsin concentration was determined at 500 nm and total amount of opsin and rhodopsin at 280 nm with a Hewlett-Packard 8452A UV-visible spectrophotometer (Palczewski, K., Carruth, M. E., Adamus, G., McDowell, J. H. & Hargrave, P. A. Vision Research, 30, 1129-1137 (1990)).

[1] = A2E accumulation in eyes after long-term treatment; format: in vivo, mouse
Method: (§1) To evaluate the safety of long-term administration of 9-cis-R-Ac, A2E accumulation was measured (FIG. 6A), because retinals spontaneously condense to this compound (Mata, N. L., Weng, J. & Travis, G. H. Proceedings of the National Academy of Sciences of the United States of America 97, 7154-7159 (2000); Parish, C. A., Hashimoto, M., Nakanishi, K., Dillon, J. & Sparrow, J. Proceedings of the National Academy of Sciences of the United States of America 95, 14609-14613 (1998)).
All experimental procedures related to extraction, derivatization and separation of retinoids were carried out under dim red light provided by a Kodak No. 1 safelight filter (transmittance>560 nm) as described previously (Van Hooser, J. P., et al. Proceedings of the National Academy of Sciences of the United States of America 97, 8623-8628 (2000); Van Hooser, J. P., et al. J Biol Chem, 277, 19173-19182 (2002); Maeda, A., et al. J Biol Chem 280, 18822-18832 (2005); Van Hooser, J. P., Garwin, G. G. & Saari, J. C. Methods Enzymol 316, 565-575 (2000)). […] The combined extracts were dried under argon and retinoids were separated by normal phase HPLC (Beckman, Ultrasphere-Si, 5 μm, 4.6×250 mm) with 10% ethyl acetate and 90% hexane at a flow rate of 1.4 ml/min and detected at 325 nm by an HPI 100 HPLC with a diode array detector and HP Chemstation A.03.03 software. […]

[2] = Hepatic retinoic acid levels after long-term treatment; format: in vivo, mouse; conditions: all groups
Method: as §1
Analysis of retinoic acid in the liver was carried out as described before (Batten, M. L., et al. PLoS Medicine 2, e333 (2005)) by an Agilent 1100 HPLC with two tandem normal phase columns: a Varian Microsorb Silica 3 μm, 4.6×100 mm (Varian, Palo Alto, Calif.) and an Ultrasphere-Si, 5 μm, 4.6×250 mm column. An isocratic solvent system of 1000:4.3:0.675 hexane:2-propanol:glacial acetic acid (v/v) was used at a flow rate of 1 ml/min at 20° C. with detection at 355 nm. Calibration was done with standards of all-trans-RA and 9-cis-RA purchased from Sigma-Aldrich.

retina = assay: Retinal morphology (light and electron microscopy); format: in vivo, mouse
Method: The thickness of each major layer in the retina was also similar between control and treated groups.
For light microscopy, mouse eyecups were fixed with 2.5% glutaraldehyde and 1.6% paraformaldehyde in 0.08 M 1,4-piperazinediethanesulfonate buffer (PIPES) (pH 7.4) containing 2% sucrose for ˜1 hr at room temperature followed by 23 hr at 4° C. Eyecups then were washed with 0.13 M sodium phosphate buffer (pH 7.3) and dehydrated through a CH3OH series and embedded in JB4 glycol metacrylate. Sections (6 μm) were stained by immersion in 5% Richardson's stain for 1.5-2 min at room temperature and destained in 0.13 M sodium phosphate (pH 7.3) until the retinal layers were visible by light microscopy (about 8-15 min). For transmission electron microscopy, mouse eyecups were analyzed as described previously (Maeda, A., et al. J Blot Chem 280, 18822-18832 (2005); Maeda, T., Lem, J., Palczewski, K. & Haeseleer, F. Investigative ophthalmology & visual science 46, 4320-4327 (2005)).

[3] = mouse, in vivo
Method: Animals were evaluated weekly for activity and changes in coat and skin appearance.
For the long-term study (FIGS. 1B and 1C, Table 1), mice were obtained at 3 months of age and raised until 4 months of age before the experiments were initiated. Mice then were gavaged with 9-cis-R-Ac or vehicle solution once a month for different durations. Six groups of mice were studied (FIG. 1B). The first 3 groups (C0 C1 and C2, total n=35 for each group) were treated as controls and tested at 4, 10 and 14 months of age. The other 3 groups (N1, N2 and N3, n=35) were gavaged with 9-cis-R-Ac. Group N1 was gavaged for 6 months and tested at 10 months of age. Group N2 was gavaged with 9-cis-R-Ac for 10 months and tested at 14 months of age. Group N3, was gavaged with vehicle until 10 months of age and then received 9-cis-R-Ac monthly until testing at 14 months of age.

T1 sequence (P15409 whole entry): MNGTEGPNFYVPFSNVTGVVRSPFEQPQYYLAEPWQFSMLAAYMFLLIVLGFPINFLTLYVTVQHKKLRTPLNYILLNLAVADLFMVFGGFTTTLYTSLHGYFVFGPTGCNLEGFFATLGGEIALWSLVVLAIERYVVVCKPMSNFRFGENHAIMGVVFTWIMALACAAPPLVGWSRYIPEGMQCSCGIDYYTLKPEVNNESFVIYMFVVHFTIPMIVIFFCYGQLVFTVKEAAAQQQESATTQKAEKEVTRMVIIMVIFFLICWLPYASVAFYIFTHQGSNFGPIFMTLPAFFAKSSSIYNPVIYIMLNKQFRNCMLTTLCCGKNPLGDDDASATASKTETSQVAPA

CC(=O)OC/C=C(C)/C=C/C=C(C)\C=C\C1=C(C)CCCC1(C)C [9-cis-R-Ac, 9-cis-retinyl acetate]
amounts of purified protein recovered (rhodopsin/opsin; 10-month-old treated mice, N1 versus C1): only slightly attenuated | amounts of purified protein recovered (rhodopsin/opsin; 14 months of age, N2 and N3 vs C2): significantly lower | regeneration ratios (rhodopsin/opsin) and total amounts of purified rhodopsin (rhodopsin/opsin; long-term treatment, 10 and 14 months of age, control vs treated): no significant differences | amounts of A2E in eyes ([1]; all experimental groups (C1, C2, N1, N2, N3), FIG. 6B): did not differ significantly among all groups with the exception of N3, where they were slightly lower | A2E and iso-A2E levels in eyes ([1]; long-term treatment, treated vs control at 10 and 14 months of age): did not accumulate | hepatic retinoic acid levels [2]: below detectable levels; also recorded: did not accumulate | retinal abnormalities by light microscopy (retina; 10 and 14 months of age): no major abnormalities | EM analysis of the outer retina and RPE layer (retina; control vs treated): no gross differences | thickness of each major layer in the retina (retina; control vs treated): similar | lengths of rod outer segments (ROS) (retina; control vs treated at 10 and 14 months of age): similar | tolerability of long-term treatment [3]: well tolerated
